Measurements taken from patent US20160159861A1, “APJ Receptor Compounds” (priority 2013, published 2016).
pEC50: −log10 of the molar value. Where two headings read alike, the source gives them in different places. Peptide text beside a SMILES is read from it.

Legend:
[1] = molecular target: T1, human APJ receptor (hAPJ) (Homo sapiens, UniProt P35414); experiment: HTRF cAMP assay: inhibition of NKH477-stimulated cAMP in HEK cells stably expressing hAPJ; type: cell-based; settings: for Emax: HEK293, read-out: % IA, bound stated; for % IA (cAMP inhibition, hAPJ HEK): intrinsic activity; for Ranking: composite class of EC50 (hAPJ), % IA and % histamine or formal (+) charge; for inhibition of NKH477-stimulated increase in cAMP, dose dependent: concentration response curves, FIGS. 1 and 2, HEK cells stably expressing APJ
T1 construct: expressed in transfected cells
T1 sequence (P35414 1-380): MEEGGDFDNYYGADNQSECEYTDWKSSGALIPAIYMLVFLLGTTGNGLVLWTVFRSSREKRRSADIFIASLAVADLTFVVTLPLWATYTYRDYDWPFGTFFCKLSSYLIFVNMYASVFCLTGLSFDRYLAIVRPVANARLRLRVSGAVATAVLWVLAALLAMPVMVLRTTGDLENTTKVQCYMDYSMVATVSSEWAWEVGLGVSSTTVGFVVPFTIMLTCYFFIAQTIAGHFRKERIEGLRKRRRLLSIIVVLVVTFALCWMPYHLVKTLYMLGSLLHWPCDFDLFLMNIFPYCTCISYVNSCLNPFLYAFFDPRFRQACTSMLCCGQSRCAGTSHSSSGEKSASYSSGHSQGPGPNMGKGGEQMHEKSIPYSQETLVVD
From the text: HTRF cAMP Assay and IP-One Assay (Cisbio)
HTRF (homogeneous time resolved fluorescence) is a technology developed by Cisbio Bioassays based on TR-FRET (time-resolved fluorescence resonance energy transfer). Cisbio Bioassays has developed a wide selection of HTRF-based assays compatible with whole cells, thereby enabling functional assays to run under more physiological conditions. The IP-One assays are competitive immunoassays using cryptate-labeled anti-IP1 monoclonal antibody and d2-labeled IP1. IP1 is a relatively stable downstream metabolite of IP3, and accumulates in cells following Gq receptor activation.
cAMP kits based on a competitive immunoassay using cryptate-labeled anti-cAMP antibody and d2-labeled cAMP were used to assay the effects of APJ compounds of the present invention. […] Cells are treated with 1 nG/mL doxycycline and seeded in all white 96 well plates @40 k/well overnight.

[2] = tested on: rat peritoneal cells; experiment: Ex vivo histamine release assay in rat peritoneal cells (vs. Compound 48/80); type: cell-based
From the text: More desirable pharmacological tolerability can include a decrease in an undesirable side effect (e.g., histamine release, an indicator of mast cell degranulation) without a significant loss in activity of the compound.
Screening of the variant G protein receptor compounds against a control compound for histamine release can be done following standard assays. The standard assay can include comparison to a control compound known to elicit a histamine response (e.g., 48/80 having CAS No. 94724-12-6). Such an assay using rat peritoneal cells is described herein for the APJ compounds.
Test compounds were assayed in the ex vivo histamine release assay using a 3-point dose response. Concentrations of total histamine contained in the cells is used to correct for variability in the numbers of mast cells in the lavage per well.
Resident peritoneal cells were harvested from naïve Sprague Dawley rats (male 200-300 gr, Charles River). Rats were euthanized by CO2 asphyxiation and a skin incision was made along the middle-line of the abdomen. Thirty milliliters of HBSS (HyClone, cat#SH 30268.01) containing 20 mM HEPES and 0.2% BSA (heretofore Assay Buffer) were injected intraperitoneally using a 30 mL syringe with the attached 18 gauge needle. The abdomen was gently lavaged for 1-2 min and 7-10 milliliters of the peritoneal lavage were carefully aspirated. Cell count in the peritoneal lavage was determined using Cellometer Auto T4 (Nexcelom Bioscience). The peritoneal cell count was adjusted to […] cells/mL in Assay Buffer. Rat peritoneal cells were kept at room temperature before and during the assay.
For the 10-point assay, 3-fold serial dilutions were prepared for each test compound in 100% DMSO in 96-well plates (Greiner Bio One, Ref#651261)—from 100 μM down to […]. For the 3-point assay, 10-fold serial dilutions were prepared in 100% DMSO at 100 μM, 10 μM and 1 μM concentrations. From this plate, 5 μL of compound were transferred to a new plate containing 45 μL Assay Buffer to generate a compound plate with 10× final concentrations in 10% DMSO with Assay Buffer. In the final plates, column 11 contained 1% DMSO for the low-histamine-releasing control.
Suspensions of the rat peritoneal cells (90 μL of 2.75×10^5 cells/mL; →25,000 cells per well) were introduced into each well of a new 96-well microtiter plate (Greiner Bio One, Ref#651261) and 10 μL aliquots of the serially diluted compounds were transferred to the cells in each well. The microtiter plate was incubated for 30 min at room temperature. Following incubation cells were spun down (500 rpm, 7 min) and supernatants were collected for further analysis. Supernatants were diluted 6 times with the assay buffer (15 μL to 75 μL, for 90 μL total) and released histamine content was determined using HTRF® Histamine assay kit (CisBio, cat#62HTMPEB). To measure the total histamine in each well, cells were lysed by addition of 15 μL 5% TritonX-100 to each well followed by incubation for 15 minutes. The plates were then spun at 3000 rpm for 5 minutes, and 10 μL of supernatant were diluted 9-fold in assay buffer (10 μL to 80 μL for 90 μL total) to make the “total” histamine plate. Histamine content was measured as described above for the “released” histamine values.
The standard positive control was Compound 48/80 (Enzo Life Sciences), a oligomeric polymer mixture produced by the condensation of N-methyl-p-methoxyphenethylamine with formaldehyde. The trimer is the most abundant in the mixture Compound 48/80 is used to promote mast cell degranulation and activates G proteins by a mechanism analogous to that of mastoparan. […] See references: T. Higashijima et al., J. Biol., Chem., 265 14176 (1990); M. Mousli et al., FEBS Lett., 259 260 (1990); K. Gietzen et al., Biochim. Biophys. Acta, 736 109 (1983); K. Gietzen, Biochem. J., 1983 216 611 and C. Bronner et al., Biochim. Biophys. Acta, 920 301(1987).

[3] = EC50 (cAMP inhibition, hAPJ HEK), Table 6, hAPJ HEK cells, NKH477-stimulated cAMP
[4] = HTRF cAMP Assay, per data of Table 6
[5] = histamine release from rat peritoneal cells relative to Compound 48/80
[6] = Table 6, hAPJ HEK cells, NKH477-stimulated cAMP, read-out: EC50 (cAMP inhibition, hAPJ HEK)
[7] = HTRF cAMP Assay, per data of Table 6, read-out: EC50 (hAPJ), inhibition of cAMP production, bound stated

SMILES	pEC50 [1, 3]	pEC50 ([1]; EC50 (hAPJ), inhibition of cAMP production, bound stated, HTRF cAMP Assay, per data of Table 6)	Emax [1, 4] [%]	% IA (cAMP inhibition, hAPJ HEK) ([1]; Table 6, hAPJ HEK cells) [%]	Ranking [1]	inhibition of NKH477-stimulated increase in cAMP, dose dependent [1]	Histamine (% vs. 48/80) [2, 5] [%]	Histamine (% vs. 48/80) [2] [%]	pEC50 [1, 6]	pEC50 [1, 7]
CCCCCCCCCCCCCCCC(=O)N[C@H](C(=O)N[C@H](C(=O)N[C@@H](Cc1ccccc1)C(=O)N[C@@H](CCCNC(=N)N)C(=O)N[C@@H](CO)C(=O)N[C@@H](CO)C(=O)N[C@@H](CCC(=O)O)C(=O)N[C@H](CCCN)C(=O)N[C@@H](CCCNC(=N)N)C(=O)N[C@@H](CCCNC(=N)N)C(=O)N[C@@H](CO)C(=O)N[C@@H](C)C(=O)N[C@@H](CC(=O)O)C(=O)N[C@H](C(=O)N[C@@H](Cc1ccccc1)C(=O)N[C@H](C(N)=O)[C@@H](C)CC)[C@@H](C)CC)C(C)C)[C@@H](C)O [Compound 8] (HELM PEPTIDE1{[CCCCCCCCCCCCCCCC(=O)[*:2]].T.V.F.R.S.S.E.[NCCC[C@@H](N[*:1])C(=O)[*:2]].R.R.S.A.D.I.F.I.[am]}$$$$V2.0)	7.85	≥ 7.60	≥ 80	99	***** (EC50≦25 nM (hAPJ), % IA≧80% and either % histamine≦35% or formal (+) charge≦1)	inhibited	9			
CCCCCCCCCCCCCCCC(=O)N1CCC[C@H]1C(=O)N[C@@H](CCCCNC(=O)[C@@H]1CCCN1C(=O)[C@H](Cc1ccccc1)NC(=O)[C@@H](NC(=O)[C@H](CC(=O)O)NC(=O)[C@H](C)NC(=O)[C@H](CO)NC(=O)[C@H](CCCNC(=N)N)NC(=O)[C@H](CCCNC(=N)N)NC(=O)[C@@H](CCCCN)NC(=O)[C@@H]1CCCN1C(C)=O)[C@@H](C)CC)C(=O)N[C@@H](CCCNC(=N)N)C(=O)N[C@@H](CCCNC(=N)N)C(=O)N[C@@H](CO)C(=O)N[C@@H](C)C(=O)N[C@@H](CC(=O)O)C(=O)N[C@H](C(=O)N[C@@H](Cc1ccccc1)C(=O)N1CCC[C@H]1C(N)=O)[C@@H](C)CC [Compound 9] (HELM PEPTIDE1{[CCCCCCCCCCCCCCCC(=O)[*:2]].P.K.R.R.S.A.D.I.F.P.[am]}|PEPTIDE2{[ac].P.[dK].R.R.S.A.D.I.F.P}$PEPTIDE1,PEPTIDE2,3:R3-11:R2$$$V2.0)				84	** (EC50 25-50 nM (hAPJ), % IA 50-79% and either % histamine>35% or formal (+) charge>1)			65		
CCCCCCCCCCCCCCCC(=O)N[C@H](C(=O)N[C@H](C(=O)N[C@@H](Cc1ccccc1)C(=O)N[C@@H](CCCNC(=N)N)C(=O)N[C@@H](CO)C(=O)N[C@@H](CO)C(=O)N[C@@H](CCC(=O)O)C(=O)N[C@H](C)C(=O)N[C@@H](CCCNC(=N)N)C(=O)N[C@@H](CCCNC(=N)N)C(=O)N[C@@H](CO)C(=O)N[C@@H](C)C(=O)N[C@@H](CC(=O)O)C(=O)N[C@H](C(=O)N[C@@H](Cc1ccccc1)C(=O)N[C@H](C(N)=O)[C@@H](C)CC)[C@@H](C)CC)C(C)C)[C@@H](C)O [Compound 10] (HELM PEPTIDE1{[CCCCCCCCCCCCCCCC(=O)[*:2]].T.V.F.R.S.S.E.[dA].R.R.S.A.D.I.F.I.[am]}$$$$V2.0)	7.41			106	** (EC50 25-50 nM (hAPJ), % IA 50-79% and either % histamine>35% or formal (+) charge>1)		3			
CCCCCCCCCCCCCCCC(=O)N[C@H](C(=O)N[C@H](C(=O)N[C@@H](Cc1ccccc1)C(=O)N[C@@H](CCCNC(=N)N)C(=O)N[C@@H](CO)C(=O)N[C@@H](CO)C(=O)N[C@@H](CCC(=O)O)C(=O)N[C@H](CCCCN)C(=O)N[C@@H](CCCNC(=N)N)C(=O)N[C@@H](CCCNC(=N)N)C(=O)N[C@@H](CO)C(=O)N[C@@H](C)C(=O)N[C@@H](CC(=O)O)C(=O)N[C@@H](Cc1ccc(-c2ccccc2)cc1)C(=O)N[C@@H](Cc1ccccc1)C(=O)N[C@H](C(N)=O)[C@@H](C)CC)C(C)C)[C@@H](C)O [Compound 11, TVFRSSEkRRSAD(Bip)FI] (HELM PEPTIDE1{[CCCCCCCCCCCCCCCC(=O)[*:2]].T.V.F.R.S.S.E.[dK].R.R.S.A.D.[O=C([C@H](Cc1ccc(-c2ccccc2)cc1)N[*:1])[*:2]].F.I.[am]}$$$$V2.0)				76	** (EC50 25-50 nM (hAPJ), % IA 50-79% and either % histamine>35% or formal (+) charge>1)			8	7.47	
CCCCCCCCCCCCCCCC(=O)N[C@H](C(=O)N[C@H](C(=O)N[C@@H](Cc1ccccc1)C(=O)N[C@@H](CCC(N)=O)C(=O)N[C@@H](CO)C(=O)N[C@@H](CO)C(=O)N[C@@H](CCC(=O)O)C(=O)N[C@H](CCCCN)C(=O)N[C@@H](CCCNC(=N)N)C(=O)N[C@@H](CCCNC(=N)N)C(=O)N[C@@H](CO)C(=O)N[C@@H](C)C(=O)N[C@@H](CC(=O)O)C(=O)N[C@@H](Cc1ccccc1)C(=O)N[C@H](C(N)=O)[C@@H](C)CC)C(C)C)[C@@H](C)O [Compound 15, Pal-TVFQSSEkRRSADFI-amide] (HELM PEPTIDE1{[CCCCCCCCCCCCCCCC(=O)[*:2]].T.V.F.Q.S.S.E.[dK].R.R.S.A.D.F.I.[am]}$$$$V2.0)			≥ 80	108	***** (EC50≦25 nM (hAPJ), % IA≧80% and either % histamine≦35% or formal (+) charge≦1)	inhibited		30	7.92	≥ 7.60
CCCCCCCCCCCCCCCC(=O)N[C@H](C(=O)N[C@H](C(=O)N[C@@H](Cc1ccccc1)C(=O)N[C@@H](CCC(N)=O)C(=O)N[C@@H](CO)C(=O)N[C@@H](CCC(=O)O)C(=O)N[C@H](CCCCN)C(=O)N[C@@H](CCCNC(=N)N)C(=O)N[C@@H](CCCNC(=N)N)C(=O)N[C@@H](CO)C(=O)N[C@@H](C)C(=O)N[C@@H](CC(=O)O)C(=O)N[C@@H](Cc1ccccc1)C(=O)N[C@H](C(N)=O)[C@@H](C)CC)C(C)C)[C@@H](C)O [Compound 16, TVFQSEkRRSADFI] (HELM PEPTIDE1{[CCCCCCCCCCCCCCCC(=O)[*:2]].T.V.F.Q.S.E.[dK].R.R.S.A.D.F.I.[am]}$$$$V2.0)			50 to 79	78	*** (EC50 25-50 nM (hAPJ), % IA 50-79% and either % histamine≦35% or formal (+) charge≦1)			21	8.00	7.30 to 7.60
